# In patent US20090263381A1, “COMBINATION OF DEHYDROEPIANDROSTERONE OR DEHYDROEPIANDROSTERONE-SULFATE WITH AN ANTI-IGE ANTIBODY FOR TREATMENT OF ASTHMA OR CHRONIC OBSTRUCTIVE PULMONARY DISEASE” (priority 2003, published 2009):
# Where “and” joins values, the source holds several entries; their conditions need not be identical. Equal entries are not always repeated. Where two headings read alike, the source gives them in different places.
# Key:
# Intracellular adenosine = experiment: In vivo effect on adenosine levels in various rat tissues; design: species or system Fischer 344 rats
# Experimental: Folinic acid (50 mg/kg) was administered intraperitoneally once daily for fourteen days. […] Hearts were removed from animals and flash frozen in liquid nitrogen with 10 s of death. Liver and lungs were removed en bloc and flash frozen with […]. Brain tissue was subsequently dissected.
# [1] = Particle size of jet-milled and spray-dried anhydrous DHEA-S (Malvern Mastersizer X, light microscope); assay type: physicochemical; conditions: spray dried material, two batches
# Experimental: Approximately 1 g sample was passed through the jet mill, once, and approximately 2 g sample were passed through the jet mill twice. […] The resulting solution was sonicated for 3 minutes and appeared fully dispersed. The dispersed solutions were tested on a Malvern Mastersizer X with a small volume sampler (SVS) attachment. One sample of dispersed material was tested 5 times. The median particle size or D (v, 0.5) of unmilled material was 52.56 μm and the % RSD (relative standard deviation) was 7.61 for the 5 values. The D (v, 0.5) for a single pass through the jet mill was 3.90 μm and the % RSD was 1.27, and the D (v, 0.5) from a double pass through the jet mill 3.25 μm and the % RSD was 3.10.
# The solution was spray-dried with a B-191 Mini Spray-Drier (Buchi, Flawil, Switzerland) with an inlet temperature of 55° C., outlet temperature of 40° C., at 100% aspirator, at 10% pump, nitrogen flow at 40 mbar and spray flow at 600 units. The spray-dried product was suspended in hexane and Span85 surfactant added to reduce agglomeration. The dispersions were sonicated with cooling for 3-5 minutes for complete dispersion and the dispersed solutions tested on a Malvern Mastersizer X with a Small Volume Sampler (SVS) attachment. […] Visual examination by light microscope of the dispersions of each batch confirmed that spray drying produced small respirable size particles. […]
# [2] = Nakagawa et al. 1981, 1982; cited from earlier work
# HT-29 SF cells [3] = experiment: Reversal of DHEA effect on cell cycle by medium supplements; assay type: cell-based, human; conditions: 25 FM DHEA, with increasing exposure time
# HT-29 SF cells [4] = experiment: DHEA effect on cell cycle distribution (flow cytometry); assay type: cell-based, human; conditions: 25, 50 or 200 μM DHEA; 24, 48, 72 hours
# Experimental: Cells were plated at 10^5/60-mm dish in duplicate. […] Cultures were trypsinized following 0, 24, 48, or 74 hours and fixed and stained using a modification of a procedure of Bauer et al., Cancer Res. 46, 3173-3178 (1986). Briefly, cells were collected by centrifugation and resuspended in cold phosphate-buffered saline. Cells were fixed in 70% ethanol, washed, and resuspended in phosphate-buffered saline.
# After 24, 48, and 72 hours, cells were harvested, fixed in ethanol, and stained with propidium iodide, and the DNA content/cell was determined by flow cytometric analysis. The percentage of cells in G1, S, and G2M phases was calculated using the Cellfit cell cycle analysis program. S phase is marked by a quadrangle for clarity. Representative histograms from duplicate determinations are shown. The experiment was repeated three times.
# HT-29 SF cells [5] = experiment: DHEA effect on cell growth (Coulter counter); assay type: cell-based, human
# [6] = Solid-state stability with and without lactose (DHEA formation by HPLC); assay type: physicochemical; conditions: 1 week at 50° C., neat and lactose blend
# Excerpt: These conditions were used to stress the formulation in order to predict its long-term stability results. […] The primary degradant is DHEA. […] The materials on accelerated storage become more cohesive with time as evidenced by clumping during sample weighing for chemical analysis. […] This is a considerable disadvantage since lactose is the most commonly used inhalation excipient for dry powder formulations. Continuing with the virtually anhydrous form would mean limiting formulations to neat powder or undertaking more comprehensive safety studies to use a novel excipient.
# [7] = HPLC analysis of drug degradation during jet milling; assay type: physicochemical; conditions: HPLC peak area versus unmilled standard; single-pass and double-pass
# Experimental: Two vials (A; single-pass; 150 mg) and (B double-pass; 600 mg) of the micronized drug were available for determining drug degradation during jet milling micronization. […] The chromatographic peak area for the HPLC assay of the unmilled drug standard solution (10 mg/ml) gave a value of 23,427. […] The chromatographic peak areas for vials A and B were 11,979 and 11,677, respectively.
# [8] = 0.12% NaCl (20 mM Cl^-)
# Experimental: The nebulizer is filled with 5 mL of solution and nebulization is continued until the output became visually insignificant (4½ to 5 min.). Nebulizer solutions are tested using a California Instruments AS-6 6-stage impactor with a USP throat. The impactor is run at 30 L/min for 8 s to collect a sample following one minute of nebulization time. At all other times during the experiment, the aerosol is drawn through the by-pass collector at approximately 33 L/min. The collection apparatus, nebulizer, and impactor are rinsed with mobile phase and assayed by HPLC. […] This volume is selected as the practical upper limit for use in a clinical study.
# late asthmatic response = experiment: Late asthmatic response in patients dosed with DHEA-S; assay type: in vivo; conditions: patients after five days of dosing
# [9] = Short-term solution stability of DHEA-S formulation; assay type: physicochemical
# Experimental: Aliquots of this solution are filled into clear glass vials and stored at RT (24-26° C.) and at 40° C. The samples are checked daily for DHEA-S content, DHEA content, and appearance. For each time point, duplicate samples are withdrawn and diluted from each vial. […] The study is stopped on day three. […] The solution should easily be stable for the day of reconstitution in a clinical trial. The following section describes the aerosol properties of this formulation.
# [10] = for solubility: range of triplicates
# Excerpt: The suspensions are then filtered through a 0.2 micron syringe filter and immediately diluted for HPLC analysis. To prepare refrigerated samples, the syringes and filters are stored in the refrigerator for at least one hour before use.
molecule,measurement,setting,value
"Nc1nc(=O)c2c([nH]1)NCC(CNc1ccc(C(=O)N[C@@H](CCC(=O)O)C(=O)O)cc1)N2C=O (mixture of isomers) [Folinic Acid, Folinic acid]",effect on adenosine levels when administered alone,"Intracellular adenosine; rats, folinic acid 50 mg/kg alone, all organs studied",increase in adenosine levels for all organs studied
same,effect of coadministration on steroid-mediated adenosine depletion,"Intracellular adenosine; rats, folinic acid 50 mg/kg coadministered with DHEA or methyltestosterone",completely abrogated steroid-mediated adenosine depletion
C[C@]12CC[C@H](OS(=O)(=O)[O-])CC1=CC[C@@H]1[C@@H]2CC[C@]2(C)C(=O)CC[C@@H]12.[Na+] [Anhydrous DHEA-S],mean particle size (Malvern Mastersizer X),[1],5.07±0.70 μm and 6.66±0.91 μm
same,mean particle size (light microscope),[1],2.4 μm and 2.0 μm
same,solid-state properties (in words),[2],low crystallinity and is very hygroscopic
"C[C@]12CC[C@H](O)CC1=CC[C@@H]1[C@@H]2CC[C@]2(C)C(=O)CC[C@@H]12 [DHEA, 3β-hydroxyandrost-5-en-17-one]",proportion of cells in S phase,HT-29 SF cells [3],progressively reduced the proportion of cells in S phase
same,"cell cycle effect (overall, in words)",HT-29 SF cells [4],G1 block in HT-29 SF cells in a time- and dose-dependent manner
same,effect on tissue adenosine (in words),"Intracellular adenosine; rat, in vivo",multi-organ depletion of adenosine
same,effect on growth of HT-29 cells (in words),"HT-29 SF cells [5]; 0-200 μM, 0-72 hours",time- and dose-dependent inhibition of growth
same,exposure time after which cell number was reduced compared to controls,HT-29 SF cells [5]; 12.5 μM DHEA,72 h
same,exposure time after which cell number was reduced compared to controls,HT-29 SF cells [5]; 25 μM DHEA,48 h
same,exposure time after which cell number was reduced compared to controls,HT-29 SF cells [5]; 50 μM DHEA,48 h
same,exposure time after which cell number was reduced compared to controls,HT-29 SF cells [5]; 200 μM DHEA,24 h
CC12CCC3C(CC=C4CC(OS(=O)(=O)[O-])CCC43C)C1CCC2=O.[Na+] (stereo not drawn) [DHEA-S dihydrate],DHEA generated on storage (in words),[6],virtually no DHEA generated
sodium dehydroepiandrostenone sulfate [DHEA-S],degradation of the drug during jet milling micronization,[7],no detectable degradation
same,highest solution concentration that will not precipitate during nebulization,[8],approximately 7.5 mg/mL
same,reduction of the late asthmatic response,late asthmatic response,33%
same,solid-state properties (in words),[2],most stable and crystalline as the dihydrate form
same,stability of nebulizer formulation,[9]; 7.5 mg/mL of DHEA-S in 0.12% NaCl,stable for at least one day at RT
same,appearance of solution on storage,"[9]; 10 mg/mL in 0.12% NaCl, 40° C. (accelerated condition)",became cloudy after two days of storage
same,solubility,"[10]; 0.9% NaCl, refrigerated (7-8° C.)",1100 to 1300 µg/mL
same,Ksp,"[10]; 15° C., interpolated versus reciprocal of absolute temperature",~1316 mM^2
same,equilibrium constant Ksp,"[10]; refrigerated (7-8° C.), slope of solubility versus reciprocal sodium cation concentration",665 mM^2
same,solubility,"[10]; ~25° C., 0% NaCl",16500 to 17400 µg/mL
